# Patent publication US7902356B2, “Thiazolopyridinone derivates as MCH receptor antagonists” (Eli Lilly and Company, priority 2004, dated 2011)
# Counter-ions that a name gives are not always drawn.
# Target: T1, human MCHR1 (Homo sapiens, UniProt Q99705)
# T1 construct: The full-length cDNA for human MCHR1 was cloned; expressed in transfected cells; host or cells: AV12 cells previously transfected with Galpha15
# Experiment: 125I-MCH competitive binding assay with clone 43 membranes (SPA)
# Details: 125I-MCH binding, Ki from IC50 by Cheng-Prusoff
# Experimental: The full-length cDNA for human MCHR1 was cloned from a human adult brain cDNA library (Edge Biosystems, Cat. 38356) by standard polymerase chain reaction (PCR) methodology employing the following primers: sense, 5′-GCCACCATGGACCT GGAAGCCTCGCTGC-3′; anti-sense, 5′-[…]-3′. The PCR reaction was performed in a final volume of 50 μl containing 5 μl of a 10× stock solution of PCR buffer, 1 μl of 10 mM dNTP mixture (200 μM final), 2 μl of 50 mM Mg(SO4) (2 mM final), 0.5 μl of 20 μM solutions of each primer (0.2 μM final), 5 μl of template cDNA containing 0.5 ng DNA, 0.5 μl of Platinum Taq High Fidelity DNA polymerase (Gibco Life Technologies) and […] of H2O. PCR amplification was performed on a Perkin Elmer 9600 thermocycler. After denaturation for 90 sec at 94° C., the amplification sequence consisting of 94° C. for 25 sec, 55° C. for 25 sec and 72° C. for 2 min was repeated 30 times, followed by a final elongation step at 72° C. for 10 min. The desired PCR product (1.1 Kb) was confirmed by agarose gel electrophoresis and the band was extracted from the gel by Geneclean (Bio101) following the manufacturer's instructions. Following extraction, the cDNA fragment was cloned into pCR2.1-TOPO plasmid (Invitrogen Corp) to confirm the identity and sequence.
# In order to generate cell lines stably expressing MCHR1, the insert was then subcloned into the Xba I and Not I sites of pcDNA(+)-3.1-neomycin (Invitrogen). After purification by Qiagen Maxi-prep kit (QIAGEN, Inc.), the plasmid was transfected by Fugene 6 (Roche Applied Science) into AV12 cells that had been previously transfected with the promiscuous G protein Gα15. The transfected cells were selected by G418 (800 μg/ml) for 10-14 days and single colonies were isolated from culture plates. The G418-resistant colonies were further selected for MCHR1 expression by measuring MCH-stimulated Ca^2+ transients with a fluorometric imaging plate reader (FLIPR, Molecular Devices).
# Both the ^125I-MCH binding and functional GTPγ^35S binding assays employed membranes isolated from a clone designated as clone 43. Typically, cells from 20 confluent T225 flasks were processed by washing the monolayers in cold phosphate-buffered saline (PBS), scraping the cells into same and re-suspending the cell pellet in 35 ml of 250 mM Sucrose, 50 mM HEPES, pH 7.5, 1 mM MgCl2, 24 μg/ml DNase I, and protease inhibitors (1 Complete® tablet, per 50 ml of buffer prepared, Roche Diagnostics). Alternatively, greater levels of cells could be generated by adapting cell growth to suspension culture in 20 L stirred vessel bioreactors. After incubation on ice for 5 min, cells were disrupted with 20-25 strokes of a Teflon/Glass homogenizer attached to an overhead motorized stirrer, and the homogenate was centrifuged at 40,000 rpm in Beckman Type 70.1 Ti rotor. The pellets were re-suspended in 250 mM Sucrose, 50 mM HEPES, pH 7.5, 1.5 mM CaCl2, 1 mM MgSO4 and protease inhibitors by Teflon/Glass homogenization to achieve a protein concentration of ˜3-5 mg/ml (Pierce BCA assay with Bovine serum albumin as standard). Aliquots were stored at −70° C.
# Binding of compounds to MCHR1 was assessed in a competitive binding assay employing ^125I-MCH, compound and clone 43 membranes. Briefly, assays are carried out in 96-well Costar 3632 white opaque plates in a total volume of 200 μl containing 25 mM HEPES, pH 7.0, 10 mM CaCl2, 2 mg/ml bovine serum albumin, 0.5% dimethyl sulfoxide (DMSO), 5 μg of clone 43 membranes, 200 pM ^125I-MCH (NEN), 0.625 mg/ml of wheat germ agglutinin scintillation proximity assay beads (WGA-SPA beads, Amersham Inc., now GE Healthcare) and a graded dose of test compound. Non-specific binding is assessed in the presence of 0.1 μM unlabeled MCH. Bound ^125I-MCH is determined by placing sealed plates in a Microbeta Trilux (Perkin Elmer Life and Analytical Sciences Inc.) and counting after a 12 hr delay. […]
# T1 sequence (Q99705 whole entry): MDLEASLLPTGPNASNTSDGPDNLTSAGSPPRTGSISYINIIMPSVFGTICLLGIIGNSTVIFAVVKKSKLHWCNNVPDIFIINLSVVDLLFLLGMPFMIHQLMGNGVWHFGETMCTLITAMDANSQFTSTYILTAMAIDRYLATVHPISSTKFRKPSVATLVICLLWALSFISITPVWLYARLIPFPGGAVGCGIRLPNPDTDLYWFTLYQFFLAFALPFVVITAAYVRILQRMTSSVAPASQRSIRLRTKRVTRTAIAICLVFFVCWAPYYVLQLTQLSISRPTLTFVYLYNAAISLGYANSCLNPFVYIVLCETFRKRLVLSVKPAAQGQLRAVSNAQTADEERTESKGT
row,Ki [nM],SMILES
1,35.8,"COc1cc(-n2ccc3nc(-c4ccc(Cl)cc4)sc3c2=O)ccc1OCCN1CC(C)(C)OC(C)(C)C1 [Example 65, 2-(4-Chloro-phenyl)-5-{3-methoxy-4-[2-(2,2,6,6-tetramethyl-morpholin-4-yl)-ethoxy]-phenyl}-5H-thiazolo[5,4-c]pyridine-4-one Hydrochloride]"
2,3.16,"Cl.Cn1cc(CCN2CCCC2)c2ccc(N3CCc4nc(-c5ccc(Cl)cc5)sc4C3=O)cc21 [Example 47, 2-(4-Chloro-phenyl)-5-[1-methyl-3-(2-pyrrolidin-1-yl-ethyl)-1H-indol-6-yl]-6,7-dihydro-5H-thiazolo[5,4-c]pyridin-4-one hydrochloride]"
3,5.13,"COc1cc(N2CCc3nc(-c4ccc(Cl)cc4)sc3C2=O)ccc1OCCN(C)C [Example 33, 2-(4-Chloro-phenyl)-5-[4-(2-dimethylamino-ethoxy)-3-methoxy-phenyl]-6,7-dihydro-5H-thiazolo[5,4-c]pyridin-4-one]"
4,19,"COc1cc(N2CCc3nc(-c4ccc(Cl)cc4)sc3C2=O)ccc1OCCN1CCCCC1 [Example 15, 2-(4-Chloro-phenyl)-5-[3-methoxy-4-(2-piperidin-1-yl-ethoxy)-phenyl]-6,7-dihydro-5H-thiazolo[5,4-c]pyridin-4-one]"

# More lines, now with the values behind:
row,SMILES,Ki [nM]
1,"Cc1cc2cc(N3CCc4nc(-c5ccc(Cl)cc5)sc4C3=O)ccc2n1CCN1CCCC1 [Example 5, 2-(4-Chloro-phenyl)-5-[2-methyl-1-(2-pyrrolidin-1-yl-ethyl)-1H-indol-5-yl]-6,7-dihydro-5H-thiazolo[5,4-c]pyridin-4-one]",10.2
2,"O=C1c2sc(-c3ccc(Cl)cc3)nc2CCN1c1ccc2c(c1)ncn2CCN1CCCC1 [Example 2, 2-(4-Chloro-phenyl)-5-[1-(2-pyrrolidin-1-yl-ethyl)-1H-benzoimidazol-5-yl]-6,7-dihydro-5H-thiazolo[5,4-c]pyridin-4-one]",39.7

# System: not listed separately
# Experiment: In vivo efficacy: 3 day body weight change in diet-induced obese rats
# Details: 10 mg/kg oral gavage once a day for 3 days; 3 day cumulative; diet-induced obese male Long-Evans rats
# Experimental: Vehicle consisted of 1% CMC and 0.25% PS-80 in water.
# Animals were individually housed in a temperature regulated room (24° C.) with a reverse 12 hour light/dark cycle (dark 10:00/22:00). Water and food (Teklad 95217, Harlan, Wis.) were available ad libitum. Compounds were dosed orally once a day before onset of dark for 3 days. Daily food intake and body weight change were measured for the 3 day period.
row,SMILES,Body weight reduction @ 10 mg/Kg versus vehicle control. Data expressed in grams. [grams]
1,COc1cc(-n2ccc3nc(-c4ccc(Cl)cc4)sc3c2=O)ccc1OCc1cncn1C [Example 42],1.7
2,"COc1cc(-n2ccc3nc(-c4ccc(Cl)cc4)sc3c2=O)ccc1CCCN1CCCC1.Cl [Example 52, 2-(4-Chloro-phenyl)-5-[3-methoxy-4-(3-pyrrolidin-1-yl-propyl)-phenyl]-5H-thiazolo[5,4-c]pyridin-4-one hydrochloride]",9.6
3,"Cl.Cn1cc(CCN2CCCC2)c2ccc(N3CCc4nc(-c5ccc(Cl)cc5)sc4C3=O)cc21 [Example 47, 2-(4-Chloro-phenyl)-5-[1-methyl-3-(2-pyrrolidin-1-yl-ethyl)-1H-indol-6-yl]-6,7-dihydro-5H-thiazolo[5,4-c]pyridin-4-one hydrochloride]",7.2
